Tests used:
[1] = Different excipients: potency and impurity of vial samples A1 to A25 after 60° C./75% RH for 2 weeks (HPLC); type: physicochemical; settings: glass vial sample
[2] = Compatibility study: drug potency and total impurity test of vial powder mixes after storage at 60° C./75% RH for 2 weeks (HPLC); type: physicochemical; settings: glass vial powder mix

| SMILES | Total impurity (%): NMT 1.00% [1] | % Potency (Amlodipine besylate) [2] | Total impurity [2] |
| --- | --- | --- | --- |
| CCOC(=O)C1=C(COCCN)NC(C)=C(C(=O)OC)C1c1ccccc1Cl (stereo not drawn) [Sample A1, Amlodipine besylate] | 0.02% |  |  |
| CCOC(=O)C1=C(COCCN)NC(C)=C(C(=O)OC)C1c1ccccc1Cl (stereo not drawn) [Table 1, Amlodipine besylate] |  | 100.2% | 0.02 |

From patent US20180193273A1, “PHARMACEUTICAL COMPOSITION COMPRISING AMLODIPINE AND DEXTROMETHORPHAN” (TSH BIOPHARM CORPORATION LTD., priority 2015, published 2018)
